Data on two compounds can be found in US10973832B2, “Muscarinic M1 receptor agonists” (Heptares Therapeutics Limited, priority 2011, dated 2021).

Experiment [1] concerns CA1 region of rat hippocampal slices. The experiment can be described thus: CA1 cell firing (fEPSP amplitude). Format: cell-based. Conditions: five point cumulative concentration-response, 6 slices averaged. As for the experimental part:
Rat hippocampal slices of […] thickness were cut in chilled (<4° C.) artificial cerebrospinal fluid (aCSF, composition in mM: NaCl 127, KCl 1.6, KH2PO4 1.24, MgSO4 1.3, CaCl2 2.4, NaHCO3 26 and D-glucose 10) using vibratome. Slices were maintained in oxygenated (95% O2/5% CO2) aCSF at room temperature for at least 1 hr prior to electrophysiological recording, after which they were transferred to an interface chamber and constantly perfused with warmed (30° C.) oxygenated aCSF at a flow rate of 1.5-3 ml·min−1. Schaffer collaterals were then stimulated (1-20 V, 0.1 ms pulse width, 0.033 Hz) with a concentric bipolar electrode to evoke field excitatory post synaptic potentials (fEPSPs) recorded from the stratum radiatum of the CA1 region.
Experiments were performed to examine the effect of compound compared to […] carbachol (CCh), on the amplitude of fEPSPs in the CA1 region of rat hippocampal slices. 1 μM CCh was initially applied until steady-state, followed by wash, before performing a five point cumulative concentration-response to compound. Each compound was tested on 6 slices and results averaged. Drug preparation; compound was dissolved in 100% DMSO at a stock concentration of 30 mM, and diluted according to requirements, carbamoylcholine chloride (CCh) was purchased from Sigma (Cat #C4382) and dissolved at a stock concentration of 1 mM in ddH2O.

Experiment [2] deals with T1, human muscarinic M2 receptor (Homo sapiens, UniProt P08172).
T1 sequence (P08172 1-466): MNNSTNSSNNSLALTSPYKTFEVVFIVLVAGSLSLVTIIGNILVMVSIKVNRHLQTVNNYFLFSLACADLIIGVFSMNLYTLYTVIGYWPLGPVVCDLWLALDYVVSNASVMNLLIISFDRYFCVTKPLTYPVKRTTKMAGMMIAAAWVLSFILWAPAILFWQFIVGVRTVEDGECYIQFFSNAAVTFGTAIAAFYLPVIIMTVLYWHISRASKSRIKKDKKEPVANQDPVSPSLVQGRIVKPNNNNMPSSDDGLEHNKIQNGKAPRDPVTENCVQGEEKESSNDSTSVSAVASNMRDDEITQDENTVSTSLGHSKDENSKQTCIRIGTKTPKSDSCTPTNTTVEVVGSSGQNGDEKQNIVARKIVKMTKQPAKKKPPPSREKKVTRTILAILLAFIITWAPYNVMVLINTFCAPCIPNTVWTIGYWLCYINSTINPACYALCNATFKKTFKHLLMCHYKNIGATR
The experiment in a line: Phospho-ERK1/2 assay, muscarinic M2. The format is cell-based. To be noted: for Emax: CHO, read-out: % Emax cf. ACh (M2). The method, boiled down:
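Read-out: AlphaScreen SureFire signal for phospho-ERK1/2 in lysates of stably transfected CHO cells, read after 2 h in the dark. Cells were serum-starved overnight and given agonist for 5 min at 37 °C. Values are pEC50 and Emax.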

For the next experiment, the system named is Male Wistar rats. The experiment in a line: Novel object recognition. The format is in vivo. Conditions: 10 and 30 mg/kg oral gavage 90 minutes prior to training; p<0.05. As for the experimental part: The novel object recognition paradigm is based on the greater spontaneous exploration of a novel object, compared with a familiar object, shown by rodents (Ennaceur and Delacour, 1988). […] Male Wistar rats were assessed for cognitive ability in a test apparatus comprising an open-field arena placed in a sound-attenuated room under dimmed lighting. Images of the open-field were captured by digital camera, and viewed on a monitor in an adjoining room. Each rat was subjected to the procedure separately and care taken to remove any olfactory/taste cues by cleaning the arena and test objects with alcohol between trials and rats. All tests are video scored blind to treatment. Following a 10-minute habituation period, each rat was placed into the test arena in the presence of two identical objects (plastic shapes). Each rat was placed facing the same direction at the same position in the arena, and the time spent actively exploring the objects during a 5-minute training period (T1) was recorded. The rat is returned to its home cage between tests. After 24 hours, each rat was again placed in the test arena for 5 minutes (T2) in the presence of one of the familiar objects and a novel object, and the time spent exploring both objects again recorded. The presentation order and position of the objects (left/right) was randomized between rats to prevent bias from order or place preference. Doses of 3, 10 or 30 mg/kg of test compound were administered by oral gavage 90 minutes prior to training (n=8). Donepezil (0.1 mg/kg) and galanthamine (3 mg/kg) were administered via intraperitoneal injection 60 minutes prior to training. Vehicle-treated controls were employed for comparison.

Structures are written as SMILES.

As usually defined, the EC50 is the concentration needed to bring the measured effect to its halfway point. High values mean lower potency in that assay, low ones higher potency in that assay. Usually Emax stands for the size of the effect at its maximum, as opposed to the concentration needed. In the case of `CCOC(=O)N1CCCC(N2CCC(C(=O)NC3(C)CCC3)CC2)CC1` (stereo not shown) [Example 27, ethyl 4-(4-((1-methylcyclobutyl)carbamoyl)piperidin-1-yl)azepane-1-carboxylate], the EC50 in experiment [1] was 1210 nM; in experiment [2] it was above 20000 nM. Besides, the Emax in experiment [2] was 56%.

Take `CCOC(=O)N1CCC[C@H](N2CCC(C(=O)NC3(C)CCC3)CC2)CC1` [Example 65, ethyl (4S)-4-{4-[(1-methylcyclobutyl)carbamoyl]piperidin-1-yl)azepane-1-carbondate]: in the experiment on Male Wistar rats, the “novel object recognition memory vs vehicle-treated controls” value is listed as “significantly improved novel object recognition memory”. This compound gave an EC50 in experiment [1] of 2050 nM. In addition, in experiment [2], the EC50 is above 20000 nM and the Emax worked out at 7%.
